For ten molecules, IC50 results are on record in patent US10370343B2, “[6,6] Fused bicyclic HDAC8 inhibitors” (FORMA Therapeutics, Inc., priority 2015, dated 2019).

Assay [1] has as its target T1, Full length human recombinant HDAC8 protein (Homo sapiens, UniProt Q9BY41).
T1 construct: Full length human recombinant HDAC8 protein was expressed in baculoviral system; made in house
T1 sequence (Q9BY41 1-377): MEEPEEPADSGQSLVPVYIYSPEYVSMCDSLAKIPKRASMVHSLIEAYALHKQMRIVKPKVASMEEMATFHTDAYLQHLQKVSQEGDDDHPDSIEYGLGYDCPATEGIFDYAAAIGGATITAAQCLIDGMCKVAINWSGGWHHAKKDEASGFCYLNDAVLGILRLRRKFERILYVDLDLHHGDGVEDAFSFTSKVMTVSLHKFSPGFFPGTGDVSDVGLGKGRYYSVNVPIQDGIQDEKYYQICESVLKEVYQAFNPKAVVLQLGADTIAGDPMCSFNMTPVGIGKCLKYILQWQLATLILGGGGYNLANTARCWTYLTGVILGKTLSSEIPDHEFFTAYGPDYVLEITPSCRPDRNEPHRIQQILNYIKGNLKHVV
Kind of assay: In vitro histone deacetylase assay: enzymatic HDAC8 electrophoretic mobility shift assay. In kind it is biochemical. To be noted: electrophoretic mobility shift assay; enzyme 1 nM; 2 μM fluorescently labeled peptide substrate RHKK(Ac)-NH2; 25° C.; 12 concentrations; read-out: HDAC8 IC50. (In general: In EMSA bound probe runs differently from free probe, usually more slowly.)

For assay [2], the target named is T2, Recombinant N-terminal GST tag full-length human HDAC8 (Homo sapiens, UniProt Q9BY41).
T2 construct: Recombinant N-terminal GST tag full-length human HDAC8; purchased SignalChem H90-30G-1000; host or cells: baculovirus in Sf9 insect cells
T2 sequence (Q9BY41 1-377): T1 sequence (Q9BY41 1-377)
The assay is described as follows: HDAC8 probe binding assay, time resolved fluorescence (TRF) format. To be noted: compounds grouped by IC50 range (Table 2). In outline: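 IC50 values come from four-parameter logistic fits of percent inhibition, scaled between DMSO (high) and no-enzyme (low) controls. Time-resolved fluorescence (ex 340, em 485/535 nm) was read after 16 h at room temperature. Enzyme was Sf9-expressed full-length human HDAC8 with an N-terminal GST tag, in a probe-binding format.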

For the molecule `CC(C)n1c(CN2C(=O)COc3ccc(C(=O)NO)cc32)nc2ccccc21` [Compound I-281, N-hydroxy-4-((1-isopropyl-1H-benzo[d]imidazol-2-yl)methyl)-3-oxo-3,4-dihydro-2H-benzo[b][1,4]oxazine-6-carboxamide], the figures for the 50% inhibitory concentration (IC50) in assay [1] and in assay [2] were 100 to 1000 nM and greater than 1000 nM, respectively.

As for `O=C(NO)c1ccc2c(c1)N(Cc1nc3cccnc3n1Cc1ccccc1)C(=O)CO2` [Compound I-284, 4-((3-benzyl-3H-imidazo[4,5-b]pyridin-2-yl)methyl)-N-hydroxy-3-oxo-3,4-dihydro-2H-benzo[b][1,4]oxazine-6-carboxamide], the IC50 in assay [1] and in assay [2] was 25 to 100 nM each time.

For the molecule `COc1ccc2oc(CN3C(=O)COc4ccc(C(=O)NO)cc43)nc2c1` [Compound I-285, N-hydroxy-4-((5-methoxybenzo[d]oxazol-2-yl)methyl)-3-oxo-3,4-dihydro-2H-benzo[b][1,4]oxazine-6-carboxamide], the results for the IC50 in assay [1] and in assay [2] were less than 25 nM and no more than 25 nM, respectively.

For the molecule `Cc1ccc2oc(CN3C(=O)COc4ccc(C(=O)NO)cc43)nc2c1` [Compound I-286, N-hydroxy-4-((5-methylbenzo[d]oxazol-2-yl)methyl)-3-oxo-3,4-dihydro-2H-benzo[b][1,4]oxazine-6-carboxamide], the IC50 in assay [1] and in assay [2] was 25 to 100 nM each time.

`O=C(NO)c1ccc2c(c1)N(Cc1nc3ccccc3o1)C(=O)CO2` [Compound I-288, 4-(benzo[d]oxazol-2-ylmethyl)-N-hydroxy-3-oxo-3,4-dihydro-2H-benzo[b][1,4]oxazine-6-carboxamide]: the IC50 (commonly the midpoint of a concentration-inhibition curve) in assay [1] is less than 25 nM; in assay [2], no more than 25 nM.

`O=C(NO)c1ccc2c(c1)N(Cc1nc3cc(Cl)ccc3s1)C(=O)CO2` [Compound I-290, 4-((5-chlorobenzo[d]thiazol-2-yl)methyl)-N-hydroxy-3-oxo-3,4-dihydro-2H-benzo[b][1,4]oxazine-6-carboxamide]: the IC50 in assay [1] was less than 25 nM; in assay [2], no more than 25 nM.

Regarding `Cc1ccc2nc(CN3C(=O)C(C)(C)Oc4ccc(C(=O)NO)cc43)oc2c1` [Compound I-292, N-hydroxy-2,2-dimethyl-4-((6-methylbenzo[d]oxazol-2-yl)methyl)-3-oxo-3,4-dihydro-2H-benzo[b][1,4]oxazine-6-carboxamide], the IC50 in assay [1] and in assay [2] was 25 to 100 nM throughout.

In the case of `CC1(C)Oc2ccc(C(=O)NO)cc2N(Cc2nc3cc(Cl)ccc3s2)C1=O` [Compound I-296, 4-((5-chlorobenzo[d]thiazol-2-yl)methyl)-N-hydroxy-2,2-dimethyl-3-oxo-3,4-dihydro-2H-benzo[b][1,4]oxazine-6-carboxamide], the IC50 in assay [1] is less than 25 nM; in assay [2], 25 to 100 nM.

For the molecule `O=C(NO)c1ccc2c(c1)N(c1ccccc1)C(=O)CO2` [Compound I-357, N-hydroxy-3-oxo-4-phenyl-3,4-dihydro-2H-benzo[b][1,4]oxazine-6-carboxamide], the IC50 lay in the range of 100 to 1000 nM in assay [1] and 25 to 100 nM in assay [2].

Regarding `COc1cccc(N2C(=O)COc3ccc(C(=O)NO)cc32)c1` [Compound I-358, N-hydroxy-4-(3-methoxyphenyl)-3-oxo-3,4-dihydro-2H-1,4-benzoxazine-6-carboxamide], the IC50 in assay [1] and in assay [2] was 25 to 100 nM each time.
